Assay [1] has as its target T1, human soluble epoxide hydrolase (hsEH) (Homo sapiens, UniProt P34913).
T1 construct: gene EPHX2; C-terminal domain (CTD)
T1 sequence (P34913 230-555 limits assumed): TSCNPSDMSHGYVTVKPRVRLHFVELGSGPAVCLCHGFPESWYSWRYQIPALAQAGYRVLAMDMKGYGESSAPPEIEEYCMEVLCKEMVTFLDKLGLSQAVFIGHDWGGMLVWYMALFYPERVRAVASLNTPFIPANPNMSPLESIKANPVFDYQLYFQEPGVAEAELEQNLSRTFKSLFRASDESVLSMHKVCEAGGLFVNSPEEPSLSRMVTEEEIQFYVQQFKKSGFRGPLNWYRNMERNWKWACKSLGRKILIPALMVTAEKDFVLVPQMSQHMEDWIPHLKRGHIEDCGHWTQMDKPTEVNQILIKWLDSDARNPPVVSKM
In words: single-injection ITC enzyme kinetics (KM; saturation not reached). The assay is classed as biochemical.

Assay [2] addresses T1, human soluble epoxide hydrolase (hsEH). The assay can be described thus: single-injection ITC enzyme kinetics (KM). The format is biochemical.

One may read the Km as the concentration of substrate that gives half-maximal velocity. As to `CCCCC/C=C\C/C=C\C/C=C\CC1OC1CCCC(=O)O` (stereo not shown) [5(6)EET], the Km in assay [1] stood at 46.6 ± 11 µM. `CCCCC/C=C\C/C=C\CC1OC1C/C=C\CCCC(=O)O` (stereo not shown) [8(9)EET]: in assay [2], the Km came out at 23.1 ± 2.39 µM.

Take `CC/C=C\C/C=C\C/C=C\CC1OC1C/C=C\CCCC(=O)O` (stereo not shown) [8(9)EpETE]: the Km in assay [2] is 9.74 ± 0.13 µM. The same measure, in the same setting: to `CCCCC/C=C\CC1OC1C/C=C\C/C=C\CCCC(=O)O` (stereo not shown) [11(12)EET] belongs 1.74 ± 0.2 µM; to `CCCCCC1OC1C/C=C\C/C=C\C/C=C\CCCC(=O)O` (stereo not shown) [14(15)EET], 12.9 ± 1.94 µM.

Regarding `CCC1OC1C/C=C\C/C=C\C/C=C\C/C=C\CCCC(=O)O` (stereo not shown) [17(18)EpETE], the Km in assay [2] came to 26.4 ± 4.05 µM. With `CCC1OC1C/C=C\C/C=C\C/C=C\C/C=C\C/C=C\CCC(=O)O` (stereo not shown) [19(20)EpDPE], in assay [2], the Km is 26.6 ± 1.21 µM.

The record behind these values is publication PMC7041903, “Isothermal Titration Calorimetry Enables Rapid Characterization of Enzyme Kinetics and Inhibition for the Human Soluble Epoxide Hydrolase” (Analytical Chemistry, 2019).
